Results reported in PMC9293634, “Conformational flexibility in carbapenem hydrolysis drives substrate specificity of the class D carbapenemase OXA-24/40” (The Journal of Biological Chemistry, 2022).

Legend:
OXA-24/40 [1] = target: T1, OXA-24/40 (Acinetobacter baumannii, UniProt Q8RLA6, K84D); test: X-ray crystal structure ([…] Å), intact β-lactam; format: binding
T1 construct: gene blaOXA-33

OXA-24/40 [2] = target: T1, OXA-24/40; test: X-ray crystal structure of acyl-enzyme ([…] Å); format: binding

T1 sequence (Q8RLA6 32-275 K84D): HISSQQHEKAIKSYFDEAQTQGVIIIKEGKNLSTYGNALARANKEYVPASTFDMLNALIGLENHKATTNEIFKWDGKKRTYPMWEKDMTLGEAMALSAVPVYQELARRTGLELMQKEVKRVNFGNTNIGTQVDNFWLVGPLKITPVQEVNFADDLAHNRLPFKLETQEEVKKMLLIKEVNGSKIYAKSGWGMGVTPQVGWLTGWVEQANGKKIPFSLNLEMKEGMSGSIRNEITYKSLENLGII

**Q.** `C[C@@H](O)[C@H]1C(=O)N2C(C(=O)O)=C(S[C@@H]3CN[C@H](C(=O)Nc4cccc(C(=O)O)c4)C3)[C@H](C)[C@H]12` [ertapenem] was tested. Which “X-ray crystal structure (2.58 Å), intact β-lactam” value (OXA-24/40 [1]) did it give?
**A.** In the K84D–ertapenem structure, ertapenem is bound as an intact β-lactam, yet in an unproductive binding mode

**Q.** How did the “X-ray crystal structure of acyl-enzyme (2.28 Å)” value (OXA-24/40 [2]) turn out when `C[C@@H](O)[C@H]1C(=O)N2C(C(=O)O)=C(SCCN=CN)C[C@H]12` [imipenem] was run?
**A.** A predominant conformation for imipenem was observed in the K84D complex
